Active and inactive are the calls of the source. The calls are words filed in the database; no cut-off is given here.
Columns and labels:
MC-38 [1] = test: Antitumor activity against mouse MC38 cells allografted in C57BL/6 mouse model assessed as reduction in tumor weight at 10 to 20 mg/kg, ip administered once daily for 14 days; type: functional, organism-based; settings: dose 10-20 mg/kg, time 14.0 day
MC-38 [2] = test: Induction of apoptosis in mouse MC38 cells assessed as late apoptotic cells at 100 nM by Annexin V/PI staining based flow cytometric analysis (reference value: 0.85 %); type: functional
BMDM [3] = test: Induction of repolarization of M2 like macrophage into M1 phenotype in female C57BL/6 mouse BMDM cells assessed as increase in number of M1 macrophages by measuring increase in Nos2 expression at 10 to 100 nM stimulated with mouse IL4/IL-13 for 24 hrs followed by compound addition and measured after 24 hrs by immunofluorescence analysis; type: functional, cell-based; settings: dose 10-100 nM
MC-38 [4] = test: Induction of apoptosis in mouse MC38 cells assessed as late apoptotic cells at 30 nM by Annexin V/PI staining based flow cytometric analysis (reference value: 0.85 %); type: functional
MC-38 [5] = test: Antitumor activity against mouse MC38 cells allografted in C57BL/6 mouse model assessed as downregulation of […] mRNA expression in tumor at 10 to 20 mg/kg, ip administered once daily for 14 days by qPCR analysis; type: functional, organism-based; settings: dose 10-20 mg/kg, time 14.0 day
BMDM [6] = test: Induction of repolarization of M2 like macrophage into M1 phenotype in female C57BL/6 mouse BMDM cells assessed as decrease in Mrc1 mRNA expression at 10 to 100 nM stimulated with mouse IL4/IL-13 for 24 hrs followed by compound addition and measured after 24 hrs by qPCR analysis; type: functional, cell-based; settings: dose 10-100 nM
MC-38 [7] = test: Induction of apoptosis in mouse MC38 cells cocultured with condition medium of M2 macrophages assessed as early apoptotic cells at 100 nM by Annexin V/PI staining based flow cytometric analysis (reference value: 3.16 %); type: functional
[8] = MRT (0 to t) in Sprague-Dawley rat at 1 mg/kg, iv; type: ADME, organism-based; settings: in vivo
[9] = biological target: T1, Macrophage colony-stimulating factor 1 receptor (Homo sapiens, UniProt P07333); test: Inhibition of CSF-1R (unknown origin) at 1 uM
MC-38 [10] = test: Induction of apoptosis in mouse MC38 cells cocultured with condition medium of M2 macrophages assessed as late apoptotic cells at 10 nM by Annexin V/PI staining based flow cytometric analysis (reference value: 1.66 %); type: functional
MC-38 [11] = test: Antitumor activity against mouse MC38 cells allografted in C57BL/6 mouse model assessed as upregulation of Il1 mRNA expression in tumor at 10 to 20 mg/kg, ip administered once daily for 14 days by qPCR analysis; type: functional, organism-based; settings: dose 10-20 mg/kg, time 14.0 day
MC-38 [12] = test: Induction of apoptosis in mouse MC38 cells cocultured with condition medium of M2 macrophages assessed as late apoptotic cells at 100 nM by Annexin V/PI staining based flow cytometric analysis (reference value: 1.66 %); type: functional
MC-38 [13] = test: Antitumor activity against mouse MC38 cells allografted in C57BL/6 mouse model assessed as upregulation of Nos2 mRNA expression in tumor at 10 to 20 mg/kg, ip administered once daily for 14 days by qPCR analysis; type: functional, organism-based; settings: dose 10-20 mg/kg, time 14.0 day
[14] = test system: Colorectal cancer organoid; test: Antitumor activity against patient derived CRC organoids cocultured with IL-4/13 stimulated M2 macrophages assessed as reduction in number of organoids at 10 to 100 nM incubated for 72 hrs; type: functional, tissue-based; settings: Homo sapiens, Colorectum, dose 10-100 nM
[15] = biological target: BDNF/NT-3 growth factors receptor (Homo sapiens) (UniProt Q16620); test: Inhibition of TRKB (unknown origin) at 1 uM
[16] = Terminal half-life in Sprague-Dawley rat at 1 mg/kg, iv; type: ADME, organism-based; settings: in vivo, read-out: beta t1/2 (converted)
BMDM [17] = test: Induction of repolarization of M2 like macrophage into M1 phenotype in female C57BL/6 mouse BMDM cells assessed as increase in Il1 mRNA expression at 10 to 100 nM stimulated with mouse IL4/IL-13 for 24 hrs followed by compound addition and measured after 24 hrs by qPCR analysis; type: functional, cell-based; settings: dose 10-100 nM
[18] = Terminal half-life in Sprague-Dawley rat at 10 mg/kg, po; type: ADME, organism-based; settings: in vivo, read-out: beta t1/2 (converted)
MC-38 [19] = test: Induction of apoptosis in mouse MC38 cells assessed as early apoptotic cells at 10 nM by Annexin V/PI staining based flow cytometric analysis (reference value: 1.91 %); type: functional
[20] = biological target: T1, Macrophage colony-stimulating factor 1 receptor; test: Inhibition of CSF-1R (unknown origin)
[21] = Oral bioavailability in Sprague-Dawley rat at 10 mg/kg; type: ADME, organism-based; settings: in vivo
MC-38 [22] = test: Induction of apoptosis in mouse MC38 cells assessed as early apoptotic cells at 30 nM by Annexin V/PI staining based flow cytometric analysis (reference value: 1.91 %); type: functional
MC-38 [23] = test: Inhibition of cell viability in mouse MC38 cells at 10 to 100 nM by MTT assay; type: functional, cell-based; settings: dose 10-100 nM
[24] = biological target: T2, Macrophage colony-stimulating factor 1 receptor (Mus musculus) (UniProt P09581); test: Inhibition of CSF-1R signaling pathway activation in female C57BL/6 mouse BMDM cells assessed as reduction in STAT3 phosphorylation preincubated with compounds for 4 hrs followed by M-CSF stimulation and measured after 30 mins by Western blot analysis; type: cell-based; settings: dose 10-100 nM, time 4.5 hrs
T2 sequence (whole entry): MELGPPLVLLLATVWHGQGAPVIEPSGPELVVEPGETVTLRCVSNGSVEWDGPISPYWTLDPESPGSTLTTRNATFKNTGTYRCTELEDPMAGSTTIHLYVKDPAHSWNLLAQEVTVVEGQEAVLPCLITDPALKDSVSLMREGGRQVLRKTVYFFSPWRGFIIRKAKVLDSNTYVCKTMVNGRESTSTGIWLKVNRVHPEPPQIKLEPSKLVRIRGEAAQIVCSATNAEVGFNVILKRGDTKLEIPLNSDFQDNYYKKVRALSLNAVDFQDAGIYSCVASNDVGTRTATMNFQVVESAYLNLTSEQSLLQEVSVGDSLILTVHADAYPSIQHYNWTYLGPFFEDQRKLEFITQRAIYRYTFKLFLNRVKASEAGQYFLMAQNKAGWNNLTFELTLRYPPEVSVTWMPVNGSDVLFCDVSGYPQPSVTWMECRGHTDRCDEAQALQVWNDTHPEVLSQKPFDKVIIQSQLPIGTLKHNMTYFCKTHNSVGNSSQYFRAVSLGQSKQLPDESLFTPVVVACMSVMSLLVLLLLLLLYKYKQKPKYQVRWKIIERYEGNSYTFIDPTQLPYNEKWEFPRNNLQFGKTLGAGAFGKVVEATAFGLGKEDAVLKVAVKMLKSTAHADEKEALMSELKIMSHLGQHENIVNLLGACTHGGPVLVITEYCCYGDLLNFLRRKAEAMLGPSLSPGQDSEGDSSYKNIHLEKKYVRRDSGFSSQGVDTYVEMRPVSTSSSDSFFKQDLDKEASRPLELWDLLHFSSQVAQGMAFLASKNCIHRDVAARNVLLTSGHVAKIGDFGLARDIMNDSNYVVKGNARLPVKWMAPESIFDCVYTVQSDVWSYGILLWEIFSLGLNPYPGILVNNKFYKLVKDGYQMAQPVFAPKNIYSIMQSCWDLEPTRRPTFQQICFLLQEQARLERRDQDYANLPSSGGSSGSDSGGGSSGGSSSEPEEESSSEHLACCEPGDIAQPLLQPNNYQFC

T1 sequence (P07333 whole entry): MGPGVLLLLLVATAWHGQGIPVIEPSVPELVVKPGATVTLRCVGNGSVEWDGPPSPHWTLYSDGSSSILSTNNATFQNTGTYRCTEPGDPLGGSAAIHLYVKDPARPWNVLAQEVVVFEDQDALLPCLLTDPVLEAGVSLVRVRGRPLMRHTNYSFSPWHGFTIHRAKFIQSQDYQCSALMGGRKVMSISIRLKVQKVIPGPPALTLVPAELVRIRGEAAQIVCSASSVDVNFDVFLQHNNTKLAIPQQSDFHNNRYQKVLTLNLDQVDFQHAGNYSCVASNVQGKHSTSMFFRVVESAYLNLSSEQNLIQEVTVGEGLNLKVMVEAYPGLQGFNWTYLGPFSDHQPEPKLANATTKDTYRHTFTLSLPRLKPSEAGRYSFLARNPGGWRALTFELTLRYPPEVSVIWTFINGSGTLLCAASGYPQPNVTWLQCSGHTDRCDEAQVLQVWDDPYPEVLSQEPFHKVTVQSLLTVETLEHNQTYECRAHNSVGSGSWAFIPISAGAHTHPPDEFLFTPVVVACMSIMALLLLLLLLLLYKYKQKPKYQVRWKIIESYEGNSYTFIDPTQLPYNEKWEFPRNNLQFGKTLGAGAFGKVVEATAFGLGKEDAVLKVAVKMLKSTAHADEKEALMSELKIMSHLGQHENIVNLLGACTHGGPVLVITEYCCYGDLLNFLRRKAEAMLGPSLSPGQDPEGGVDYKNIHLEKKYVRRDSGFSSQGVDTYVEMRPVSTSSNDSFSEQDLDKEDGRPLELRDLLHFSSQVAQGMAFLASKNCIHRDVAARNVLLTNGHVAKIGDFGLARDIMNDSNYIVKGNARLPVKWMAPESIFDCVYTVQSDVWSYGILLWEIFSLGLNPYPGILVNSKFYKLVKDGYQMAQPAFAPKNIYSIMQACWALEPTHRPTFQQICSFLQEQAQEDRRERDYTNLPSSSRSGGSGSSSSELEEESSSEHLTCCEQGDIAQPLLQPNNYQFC
Sequence of BDNF/NT-3 growth factors receptor (Homo sapiens) (Q16620 32-822 limits assumed): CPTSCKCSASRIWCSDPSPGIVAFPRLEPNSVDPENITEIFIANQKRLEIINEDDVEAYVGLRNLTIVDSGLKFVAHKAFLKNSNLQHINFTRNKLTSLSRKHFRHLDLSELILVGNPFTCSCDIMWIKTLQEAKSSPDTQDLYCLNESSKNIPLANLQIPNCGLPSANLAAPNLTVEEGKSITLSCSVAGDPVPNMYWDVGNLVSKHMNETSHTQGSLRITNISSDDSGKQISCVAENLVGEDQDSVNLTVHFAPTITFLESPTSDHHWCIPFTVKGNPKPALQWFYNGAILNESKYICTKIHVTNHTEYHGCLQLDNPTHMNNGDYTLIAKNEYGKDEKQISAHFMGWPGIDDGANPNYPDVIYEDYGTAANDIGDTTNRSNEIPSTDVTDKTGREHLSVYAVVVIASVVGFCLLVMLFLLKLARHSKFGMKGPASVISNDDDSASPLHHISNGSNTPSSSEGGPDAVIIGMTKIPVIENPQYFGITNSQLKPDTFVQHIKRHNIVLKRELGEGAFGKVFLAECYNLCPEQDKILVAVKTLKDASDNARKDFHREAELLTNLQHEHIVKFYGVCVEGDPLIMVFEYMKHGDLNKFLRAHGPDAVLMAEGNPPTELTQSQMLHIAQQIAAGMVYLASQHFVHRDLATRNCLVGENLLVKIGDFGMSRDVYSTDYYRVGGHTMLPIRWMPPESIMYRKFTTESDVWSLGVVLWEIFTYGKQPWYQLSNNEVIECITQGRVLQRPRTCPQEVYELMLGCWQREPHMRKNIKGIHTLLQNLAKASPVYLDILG

MRT last [8]: 1.6 h
inhibition [9]: Active
inhibition [15]: Active
half-life [16]: 1.2 h
half-life [18]: 1.86 h
IC50 [20]: 20.1 nM
bioavailability [21]: 79.2%
inhibition [24]: Dose-dependent-effect
SMILES: Cc1nc(NC(=O)N[C@@H]2CCCC[C@H]2O)ccc1Oc1c[nH]c2ncc(Cl)cc12
Activity (MC-38 [1]): Active; Lower Tumor Weight Observed Than That Of Plx3397 Treated Group
Activity (MC-38 [2]): 1.01%
Activity (BMDM [3]): Active
Activity (MC-38 [4]): 0.87%
Activity (MC-38 [5]): Active
Activity (BMDM [6]): Active
Activity (MC-38 [7]): 19.91%
Activity (MC-38 [10]): 3.25%
Activity (MC-38 [11]): Active
Activity (MC-38 [12]): 5.67%
Activity (MC-38 [13]): Active
Activity [14]: Active
Activity (BMDM [17]): Active
Activity (MC-38 [19]): 1.96%
Activity (MC-38 [22]): 1.71%
inhibition (MC-38 [23]): Minimal_effect
